Laboratory results as given in patent publication US20230123334A1, “AMINO LIPID COMPOUND, PREPARATION METHOD THEREFOR, AND APPLICATION THEREOF” (SHENZHEN SHENXIN BIOTECHNOLOGY CO., LTD., priority 2020, published 2023).

Tested on: HEK293 cells
Assay: Preliminary screening as DNA vectors, GFP transfection of HEK293 cells
Assay type: cell-based
Settings: amino lipid/DOPE liposome with 75 ng plasmid DNA (psin-EGFP-IRES-Puro); number of GFP-expressing cells divided by total nuclei (Hoechst)
Method in brief: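 HEK293 cells in DMEM/10% FBS transfected with 75 ng EGFP plasmid per well complexed with amino lipid/DOPE liposomes in pH 5.6 sodium acetate. Hoechst nuclear stain added 20-24 h post-transfection, then cells cultured another 20-24 h. Confocal imaging gives GFP-positive cells as % of total nuclei.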

| Compound | Absolute DNA transfection efficiency in HEK293 cells |
| --- | --- |
| CCCCCCCCCCCCCCCCCCNc1nc(NCCCN(C)C)nc(SCCCCCCCCCCCCCCC)n1 [S15N18 D6] | 0.3% |
| CCCCCCCCCCCCCCCCCCNc1nc(NCCN(CC)CC)nc(SCCCCCCCCCCCCCCC)n1 [S15N18 D7] | 0.9% |
| CCCCCCCCCCCCCCCCCCNc1nc(NCCCN2CCOCC2)nc(SCCCCCCCCCCCCCCC)n1 [S15N18 D8] | 0.3% |
| CCCCCCCCCCCCCCCCCCNc1nc(NCCCN2CCN(C)CC2)nc(SCCCCCCCCCCCCCCC)n1 [S15N18 D9] | 0.4% |
| CCCCCCCCCCCCCCCCCCNc1nc(NCC2CCN(C)CC2)nc(SCCCCCCCCCCCCCCC)n1 [S15N18 D10] | 1.2% |
| CCCCCCCCCCCCCCCSc1nc(NCCN(C)C)nc(N(CCCCCCCCCCCC)CCCCCCCCCCCC)n1 [S15^2N12 D1] | 0.0% |
| CCCCCCCCCCCCCCCSc1nc(NCCN2CCOCC2)nc(N(CCCCCCCCCCCC)CCCCCCCCCCCC)n1 [S15^2N12 D2] | 0.0% |
| CCCCCCCCCCCCCCCSc1nc(NCCN2CCCC2)nc(N(CCCCCCCCCCCC)CCCCCCCCCCCC)n1 [S15^2N12 D3] | 0.1% |
| CCCCCCCCCCCCCCCSc1nc(NCCN2CCCCC2)nc(N(CCCCCCCCCCCC)CCCCCCCCCCCC)n1 [S15^2N12 D4] | 0.0% |
| CCCCCCCCCCCCCCCSc1nc(NCCN2CCN(C)CC2)nc(N(CCCCCCCCCCCC)CCCCCCCCCCCC)n1 [S15^2N12 D5] | 0.7% |
| CCCCCCCCCCCCCCCSc1nc(NCCCN(C)C)nc(N(CCCCCCCCCCCC)CCCCCCCCCCCC)n1 [S15^2N12 D6] | 0.0% |
| CCCCCCCCCCCCCCCSc1nc(NCCN(CC)CC)nc(N(CCCCCCCCCCCC)CCCCCCCCCCCC)n1 [S15^2N12 D7] | 0.2% |
| CCCCCCCCCCCCCCCSc1nc(NCCCN2CCOCC2)nc(N(CCCCCCCCCCCC)CCCCCCCCCCCC)n1 [S15^2N12 D8] | 0.0% |
| CCCCCCCCCCCCCCCSc1nc(NCCCN2CCN(C)CC2)nc(N(CCCCCCCCCCCC)CCCCCCCCCCCC)n1 [S15^2N12 D9] | 0.9% |
| CCCCCCCCCCCCCCCSc1nc(NCC2CCN(C)CC2)nc(N(CCCCCCCCCCCC)CCCCCCCCCCCC)n1 [S15^2N12 D10] | 1.0% |
| CCCCCCCCCCCCCCCCSc1nc(NCCCCCC)nc(NCCN(C)C)n1 [S16N6 D1] | 8.0% |
| CCCCCCCCCCCCCCCCSc1nc(NCCCCCC)nc(NCCN2CCOCC2)n1 [S16N6 D2] | 16.5% |
| CCCCCCCCCCCCCCCCSc1nc(NCCCCCC)nc(NCCN2CCCC2)n1 [S16N6 D3] | 35.3% |
| CCCCCCCCCCCCCCCCSc1nc(NCCCCCC)nc(NCCN2CCCCC2)n1 [S16N6 D4] | 6.0% |
| CCCCCCCCCCCCCCCCSc1nc(NCCCCCC)nc(NCCN2CCN(C)CC2)n1 [S16N6 D5] | 18.7% |
| CCCCCCCCCCCCCCCCSc1nc(NCCCCCC)nc(NCCCN(C)C)n1 [S16N6 D6] | 24.1% |

| Compound | Absolute DNA transfection efficiency in HEK293 cells |
| --- | --- |
| CCCCCCCCCCCCCCCCSc1nc(NCCCCCC)nc(NCCN(CC)CC)n1 [S16N6 D7] | 5.8% |
| CCCCCCCCCCCCCCCCSc1nc(NCCCCCC)nc(NCCCN2CCOCC2)n1 [S16N6 D8] | 11.6% |
| CCCCCCCCCCCCCCCCSc1nc(NCCCCCC)nc(NCCCN2CCN(C)CC2)n1 [S16N6 D9] | 9.6% |
| CCCCCCCCCCCCCCCCSc1nc(NCCCCCC)nc(NCC2CCN(C)CC2)n1 [S16N6 D10] | 14.5% |
| CCCCCCCCCCCCCCCCSc1nc(NCCCCCCC)nc(NCCN(C)C)n1 [S16N7 D1] | 13.0% |
| CCCCCCCCCCCCCCCCSc1nc(NCCCCCCC)nc(NCCN2CCOCC2)n1 [S16N7 D2] | 16.6% |
| CCCCCCCCCCCCCCCCSc1nc(NCCCCCCC)nc(NCCN2CCCC2)n1 [S16N7 D3] | 8.9% |
| CCCCCCCCCCCCCCCCSc1nc(NCCCCCCC)nc(NCCN2CCCCC2)n1 [S16N7 D4] | 6.9% |
| CCCCCCCCCCCCCCCCSc1nc(NCCCCCCC)nc(NCCN2CCN(C)CC2)n1 [S16N7 D5] | 10.1% |
| CCCCCCCCCCCCCCCCSc1nc(NCCCCCCC)nc(NCCCN(C)C)n1 [S16N7 D6] | 12.9% |
| CCCCCCCCCCCCCCCCSc1nc(NCCCCCCC)nc(NCCN(CC)CC)n1 [S16N7 D7] | 7.3% |
| CCCCCCCCCCCCCCCCSc1nc(NCCCCCCC)nc(NCCCN2CCOCC2)n1 [S16N7 D8] | 12.0% |
| CCCCCCCCCCCCCCCCSc1nc(NCCCCCCC)nc(NCCCN2CCN(C)CC2)n1 [S16N7 D9] | 9.8% |
| CCCCCCCCCCCCCCCCSc1nc(NCCCCCCC)nc(NCC2CCN(C)CC2)n1 [S16N7 D10] | 3.4% |
| CCCCCCCCCCCCCCCCSc1nc(NCCCCCCCC)nc(NCCN(C)C)n1 [S16N8 D1] | 10.0% |
| CCCCCCCCCCCCCCCCSc1nc(NCCCCCCCC)nc(NCCN2CCOCC2)n1 [S16N8 D2] | 14.6% |
| CCCCCCCCCCCCCCCCSc1nc(NCCCCCCCC)nc(NCCN2CCCC2)n1 [S16N8 D3] | 13.2% |
| CCCCCCCCCCCCCCCCSc1nc(NCCCCCCCC)nc(NCCN2CCCCC2)n1 [S16N8 D4] | 8.4% |
| CCCCCCCCCCCCCCCCSc1nc(NCCCCCCCC)nc(NCCN2CCN(C)CC2)n1 [S16N8 D5] | 6.7% |
| CCCCCCCCCCCCCCCCSc1nc(NCCCCCCCC)nc(NCCCN(C)C)n1 [S16N8 D6] | 11.1% |
| CCCCCCCCCCCCCCCCSc1nc(NCCCCCCCC)nc(NCCN(CC)CC)n1 [S16N8 D7] | 4.6% |

| Compound | Absolute DNA transfection efficiency in HEK293 cells |
| --- | --- |
| CCCCCCCCCCCCCCCCSc1nc(NCCCCCCCC)nc(NCCCN2CCOCC2)n1 [S16N8 D8] | 16.5% |
| CCCCCCCCCCCCCCCCSc1nc(NCCCCCCCC)nc(NCCCN2CCN(C)CC2)n1 [S16N8 D9] | 10.9% |
| CCCCCCCCCCCCCCCCSc1nc(NCCCCCCCCC)nc(NCCN(C)C)n1 [S16N9 D1] | 7.5% |
| CCCCCCCCCCCCCCCCSc1nc(NCCCCCCCCC)nc(NCCN2CCOCC2)n1 [S16N9 D2] | 7.4% |
| CCCCCCCCCCCCCCCCSc1nc(NCCCCCCCCC)nc(NCCN2CCCC2)n1 [S16N9 D3] | 13.7% |
| CCCCCCCCCCCCCCCCSc1nc(NCCCCCCCCC)nc(NCCN2CCCCC2)n1 [S16N9 D4] | 9.1% |
| CCCCCCCCCCCCCCCCSc1nc(NCCCCCCCCC)nc(NCCN2CCN(C)CC2)n1 [S16N9 D5] | 7.8% |
| CCCCCCCCCCCCCCCCSc1nc(NCCCCCCCCC)nc(NCCCN(C)C)n1 [S16N9 D6] | 11.7% |
| CCCCCCCCCCCCCCCCSc1nc(NCCCCCCCCC)nc(NCCN(CC)CC)n1 [S16N9 D7] | 5.3% |
| CCCCCCCCCCCCCCCCSc1nc(NCCCCCCCCC)nc(NCCCN2CCOCC2)n1 [S16N9 D8] | 6.7% |
| CCCCCCCCCCCCCCCCSc1nc(NCCCCCCCCC)nc(NCCCN2CCN(C)CC2)n1 [S16N9 D9] | 9.5% |
| CCCCCCCCCCCCCCCCSc1nc(NCCCCCCCCC)nc(NCC2CCN(C)CC2)n1 [S16N9 D10] | 6.9% |
| CCCCCCCCCCCCCCCCSc1nc(NCCCCCCCCCCC)nc(NCCN(C)C)n1 [S16N11 D1] | 17.2% |
| CCCCCCCCCCCCCCCCSc1nc(NCCCCCCCCCCC)nc(NCCN2CCOCC2)n1 [S16N11 D2] | 9.6% |
| CCCCCCCCCCCCCCCCSc1nc(NCCCCCCCCCCC)nc(NCCN2CCCC2)n1 [S16N11 D3] | 16.6% |
| CCCCCCCCCCCCCCCCSc1nc(NCCCCCCCCCCC)nc(NCCN2CCCCC2)n1 [S16N11 D4] | 5.8% |
| CCCCCCCCCCCCCCCCSc1nc(NCCCCCCCCCCC)nc(NCCN2CCN(C)CC2)n1 [S16N11 D5] | 9.5% |
| CCCCCCCCCCCCCCCCSc1nc(NCCCCCCCCCCC)nc(NCCCN(C)C)n1 [S16N11 D6] | 10.3% |
| CCCCCCCCCCCCCCCCSc1nc(NCCCCCCCCCCC)nc(NCCN(CC)CC)n1 [S16N11 D7] | 15.5% |
| CCCCCCCCCCCCCCCCSc1nc(NCCCCCCCCCCC)nc(NCCCN2CCOCC2)n1 [S16N11 D8] | 5.0% |
| CCCCCCCCCCCCCCCCSc1nc(NCCCCCCCCCCC)nc(NCCCN2CCN(C)CC2)n1 [S16N11 D9] | 9.6% |
